Test results as given in ChEMBL document CHEMBL4428063, “Novel Pyrimidine Toll-like Receptor 7 and 8 Dual Agonists to Treat Hepatitis B Virus” (J Med Chem, 2016).
The source made the active and inactive calls. The rule behind the calls is not given here.

Key:
[1] = AUC(0 to last) in cynomolgus monkey plasma at 30 mg/kg, administered through oral gavage measured after 24 hrs; format: ADME, organism-based, Macaca fascicularis; design: dose 30 mg/kg, time 0 - last, route oral
[2] = Fraction absorbed in Sprague-Dawley rat plasma at 10 mg/kg, po; format: ADME, organism-based; conditions: read-out: Fabs
[3] = target: Toll-like receptor 2 (Homo sapiens) (UniProt O60603); assay: Agonist activity at wild-type human TLR2 expressed in HEK293 cells up to 25 uM measured after 6 hrs by NF-kappaB luciferase reporter gene assay; format: cell-based
[4] = Tmax in cynomolgus monkey plasma at 3 mg/kg, administered through oral gavage measured after 24 hrs; format: ADME, organism-based, Macaca fascicularis
[5] = Tmax in cynomolgus monkey plasma at 9 mg/kg, administered through oral gavage measured after 24 hrs; format: ADME, organism-based, Macaca fascicularis
[6] = Intrinsic clearance in Sprague-Dawley rat liver microsomes assessed per mg protein at 1 uM measured after 60 mins; format: ADME, Microsome; conditions: read-out: CLH
[7] = Cmax in Sprague-Dawley rat plasma at 10 mg/kg, po; format: ADME, organism-based; design: dose 10 mg/kg, route oral
[8] = Oral bioavailability in cynomolgus monkey at 9 mg/kg, measured after 24 hrs; format: ADME, organism-based, Macaca fascicularis; conditions: in vivo
[9] = Tmax in Sprague-Dawley rat plasma at 10 mg/kg, po; format: ADME, organism-based
[10] = Cmax in cynomolgus monkey plasma at 30 mg/kg, administered through oral gavage measured after 24 hrs; format: ADME, organism-based, Macaca fascicularis; design: dose 30 mg/kg, route oral
[11] = Cmax in Sprague-Dawley rat liver at 10 mg/kg, po; format: ADME, organism-based; design: dose 10 mg/kg, route oral
[12] = Intrinsic clearance in C57Bl/6 mouse liver microsomes assessed per mg protein at 1 uM measured after 60 mins; format: ADME, Microsome; conditions: read-out: CLH
[13] = AUC(0 to last) in cynomolgus monkey plasma at 3 mg/kg, administered through oral gavage measured after 24 hrs; format: ADME, organism-based, Macaca fascicularis; design: dose 3 mg/kg, time 0 - last, route oral
[14] = target: T1, Toll-like receptor 7 (Homo sapiens) (UniProt Q9NYK1); assay: Agonist activity at human TLR7 expressed in HEK293 cells measured after 6 hrs by NF-kappaB luciferase reporter gene assay; format: cell-based
T1 sequence (whole entry): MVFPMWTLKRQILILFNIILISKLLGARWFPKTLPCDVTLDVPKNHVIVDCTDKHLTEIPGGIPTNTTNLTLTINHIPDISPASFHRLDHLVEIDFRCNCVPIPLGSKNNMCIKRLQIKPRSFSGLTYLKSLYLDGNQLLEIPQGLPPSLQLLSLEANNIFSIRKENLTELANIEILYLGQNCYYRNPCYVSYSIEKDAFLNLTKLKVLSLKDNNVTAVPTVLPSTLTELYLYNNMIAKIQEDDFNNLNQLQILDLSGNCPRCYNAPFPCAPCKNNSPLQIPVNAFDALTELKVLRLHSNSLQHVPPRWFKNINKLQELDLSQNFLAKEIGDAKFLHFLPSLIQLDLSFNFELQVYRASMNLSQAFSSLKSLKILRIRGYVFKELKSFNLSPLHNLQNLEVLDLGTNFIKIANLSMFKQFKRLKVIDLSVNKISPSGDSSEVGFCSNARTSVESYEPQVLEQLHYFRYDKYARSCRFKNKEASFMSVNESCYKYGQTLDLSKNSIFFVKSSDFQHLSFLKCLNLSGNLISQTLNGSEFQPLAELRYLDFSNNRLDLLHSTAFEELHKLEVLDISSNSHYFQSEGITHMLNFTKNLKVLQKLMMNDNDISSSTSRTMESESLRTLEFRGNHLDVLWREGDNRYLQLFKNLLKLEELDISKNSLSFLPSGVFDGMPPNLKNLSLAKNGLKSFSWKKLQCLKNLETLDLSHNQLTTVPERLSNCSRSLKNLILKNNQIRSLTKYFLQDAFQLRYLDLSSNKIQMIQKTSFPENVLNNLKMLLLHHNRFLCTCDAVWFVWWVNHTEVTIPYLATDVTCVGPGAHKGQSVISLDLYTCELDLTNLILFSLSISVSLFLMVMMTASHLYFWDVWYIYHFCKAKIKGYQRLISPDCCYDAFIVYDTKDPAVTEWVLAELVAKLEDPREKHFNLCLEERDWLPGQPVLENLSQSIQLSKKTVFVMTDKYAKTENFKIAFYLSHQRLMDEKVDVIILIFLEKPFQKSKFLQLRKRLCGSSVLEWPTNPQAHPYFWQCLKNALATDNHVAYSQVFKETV

[15] = Tmax in C57Bl/6 mouse at 1 to 50 mg/kg, po; format: ADME, organism-based; conditions: in vivo
[16] = AUC(0 to last) in cynomolgus monkey plasma at 9 mg/kg, administered through oral gavage measured after 24 hrs; format: ADME, organism-based, Macaca fascicularis; design: dose 9 mg/kg, route oral, time 0 - last
[17] = Cmax in cynomolgus monkey plasma at 3 mg/kg, administered through oral gavage measured after 24 hrs; format: ADME, organism-based, Macaca fascicularis; design: dose 3 mg/kg, route oral
HepG2 = assay: Cytotoxicity against human HepG2 cells measured after 72 hrs by multiplex end point analysis; format: cell-based; conditions: hepg2, 72 h
[18] = Intrinsic clearance in cynomolgus monkey hepatocytes at 1 uM measured after 120 mins; format: ADME, cell-based, Macaca fascicularis, Hepatocyte; conditions: 2 h
[19] = Oral bioavailability in cynomolgus monkey at 30 mg/kg, measured after 24 hrs; format: ADME, organism-based, Macaca fascicularis; conditions: in vivo
[20] = Tmax in Sprague-Dawley rat liver at 10 mg/kg, po; format: ADME, organism-based
[21] = Intrinsic clearance in human hepatocytes at 1 uM measured after 120 mins; format: ADME, cell-based, Hepatocyte; conditions: 2 h
[22] = target: Toll-like receptor 3 (Homo sapiens) (UniProt O15455); assay: Agonist activity at wild-type human TLR3 expressed in HEK293 cells up to 25 uM measured after 6 hrs by NF-kappaB luciferase reporter gene assay; format: cell-based
[23] = Plasma concentration in C57Bl/6 mouse infected with HBV genotype D at 5 mg/kg, po dosed once per week for 8 weeks and measured after 164 hrs after dosing prior to subsequent dosing; format: ADME, organism-based; conditions: in vivo
[24] = target: T1, Toll-like receptor 7 (Homo sapiens); assay: Activation of TLR7 in human PBMCs incubated for overnight duration followed by compound-treated cell supernatant conditioned media transfer to HCV1b transfected human HuH7-luc/neo replicon cells assessed as induction of INFalpha-mediated suppression of virus growth by firefly-luciferase reporter gene assay
human MDR1 = assay: Apparent permeability across apical to basolateral side in MDCK cells expressing human MDR1 at 1 uM by LC-MS/MS analysis; format: ADME, cell-based, Canis lupus familiaris; conditions: dog
[25] = Intrinsic clearance in cynomolgus monkey liver microsomes assessed per mg protein at 1 uM measured after 60 mins; format: ADME, Macaca fascicularis, Microsome; conditions: read-out: CLH
[26] = Ratio of drug level in Sprague-Dawley rat liver to plasma at 10 mg/kg, po; format: ADME, organism-based; conditions: liver and plasma
[27] = Intrinsic clearance in C57Bl/6 mouse hepatocytes at 1 uM measured after 120 mins; format: ADME, cell-based, Hepatocyte; conditions: 2 h
[28] = Intrinsic clearance in Sprague-Dawley rat hepatocytes at 1 uM measured after 120 mins; format: ADME, cell-based, Hepatocyte; conditions: 2 h
[29] = Intrinsic clearance in human liver microsomes assessed per mg protein at 1 uM measured after 60 mins; format: ADME, Microsome; conditions: read-out: CLH
[30] = Cmax in cynomolgus monkey plasma at 9 mg/kg, administered through oral gavage measured after 24 hrs; format: ADME, organism-based, Macaca fascicularis; design: dose 9 mg/kg, route oral
[31] = Intrinsic clearance in dog hepatocytes at 1 uM measured after 120 mins; format: ADME, cell-based, Canis lupus familiaris, Hepatocyte; conditions: 2 h
[32] = target: Toll-like receptor 4 (Homo sapiens) (UniProt O00206); assay: Agonist activity at wild-type human TLR4 expressed in HEK293 cells up to 25 uM measured after 6 hrs by NF-kappaB luciferase reporter gene assay; format: cell-based
Sequence of Toll-like receptor 4 (Homo sapiens) (O00206 whole entry): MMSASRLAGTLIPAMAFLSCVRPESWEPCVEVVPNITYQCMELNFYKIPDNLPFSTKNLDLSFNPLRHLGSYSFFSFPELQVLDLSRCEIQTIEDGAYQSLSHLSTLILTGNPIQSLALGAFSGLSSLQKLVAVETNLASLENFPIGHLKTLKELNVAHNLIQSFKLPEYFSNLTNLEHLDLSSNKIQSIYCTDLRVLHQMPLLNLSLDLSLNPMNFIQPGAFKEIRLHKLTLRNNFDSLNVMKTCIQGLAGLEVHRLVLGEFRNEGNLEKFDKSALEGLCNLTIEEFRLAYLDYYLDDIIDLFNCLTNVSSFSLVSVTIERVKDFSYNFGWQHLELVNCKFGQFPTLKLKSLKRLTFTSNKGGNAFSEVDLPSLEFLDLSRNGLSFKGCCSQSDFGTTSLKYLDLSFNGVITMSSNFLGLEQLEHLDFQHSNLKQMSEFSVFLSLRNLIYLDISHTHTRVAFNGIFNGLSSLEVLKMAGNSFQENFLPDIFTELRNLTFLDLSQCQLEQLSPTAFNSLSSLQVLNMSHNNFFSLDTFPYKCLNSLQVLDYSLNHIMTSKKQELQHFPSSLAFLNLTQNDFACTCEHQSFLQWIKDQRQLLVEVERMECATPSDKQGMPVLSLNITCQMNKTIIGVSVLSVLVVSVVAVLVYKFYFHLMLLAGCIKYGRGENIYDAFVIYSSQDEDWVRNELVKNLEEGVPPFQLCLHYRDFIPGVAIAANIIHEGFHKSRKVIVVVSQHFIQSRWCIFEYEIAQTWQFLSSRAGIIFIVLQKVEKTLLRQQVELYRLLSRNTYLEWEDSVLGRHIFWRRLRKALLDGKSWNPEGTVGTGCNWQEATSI

Sequence of Toll-like receptor 2 (Homo sapiens) (O60603 whole entry): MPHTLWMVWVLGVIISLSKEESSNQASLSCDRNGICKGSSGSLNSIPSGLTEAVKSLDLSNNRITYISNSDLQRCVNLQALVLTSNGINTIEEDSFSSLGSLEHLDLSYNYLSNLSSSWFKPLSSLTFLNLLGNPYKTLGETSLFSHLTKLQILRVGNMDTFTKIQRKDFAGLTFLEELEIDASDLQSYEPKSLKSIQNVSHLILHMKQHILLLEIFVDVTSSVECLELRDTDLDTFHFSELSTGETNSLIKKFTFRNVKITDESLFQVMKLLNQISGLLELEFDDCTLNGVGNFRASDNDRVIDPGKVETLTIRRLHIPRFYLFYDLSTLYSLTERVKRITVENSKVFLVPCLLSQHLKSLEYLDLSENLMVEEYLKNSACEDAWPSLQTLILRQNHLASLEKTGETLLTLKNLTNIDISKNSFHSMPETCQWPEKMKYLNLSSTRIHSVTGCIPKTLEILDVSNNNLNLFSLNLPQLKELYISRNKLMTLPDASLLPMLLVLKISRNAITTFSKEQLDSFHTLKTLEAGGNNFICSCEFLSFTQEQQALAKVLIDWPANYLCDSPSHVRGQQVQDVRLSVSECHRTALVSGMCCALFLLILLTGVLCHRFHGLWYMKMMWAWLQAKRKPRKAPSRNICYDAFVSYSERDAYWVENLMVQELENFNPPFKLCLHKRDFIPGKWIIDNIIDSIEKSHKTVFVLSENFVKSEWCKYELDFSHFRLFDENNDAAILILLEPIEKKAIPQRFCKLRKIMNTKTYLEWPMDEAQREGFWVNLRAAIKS
Sequence of Toll-like receptor 3 (Homo sapiens) (O15455 whole entry): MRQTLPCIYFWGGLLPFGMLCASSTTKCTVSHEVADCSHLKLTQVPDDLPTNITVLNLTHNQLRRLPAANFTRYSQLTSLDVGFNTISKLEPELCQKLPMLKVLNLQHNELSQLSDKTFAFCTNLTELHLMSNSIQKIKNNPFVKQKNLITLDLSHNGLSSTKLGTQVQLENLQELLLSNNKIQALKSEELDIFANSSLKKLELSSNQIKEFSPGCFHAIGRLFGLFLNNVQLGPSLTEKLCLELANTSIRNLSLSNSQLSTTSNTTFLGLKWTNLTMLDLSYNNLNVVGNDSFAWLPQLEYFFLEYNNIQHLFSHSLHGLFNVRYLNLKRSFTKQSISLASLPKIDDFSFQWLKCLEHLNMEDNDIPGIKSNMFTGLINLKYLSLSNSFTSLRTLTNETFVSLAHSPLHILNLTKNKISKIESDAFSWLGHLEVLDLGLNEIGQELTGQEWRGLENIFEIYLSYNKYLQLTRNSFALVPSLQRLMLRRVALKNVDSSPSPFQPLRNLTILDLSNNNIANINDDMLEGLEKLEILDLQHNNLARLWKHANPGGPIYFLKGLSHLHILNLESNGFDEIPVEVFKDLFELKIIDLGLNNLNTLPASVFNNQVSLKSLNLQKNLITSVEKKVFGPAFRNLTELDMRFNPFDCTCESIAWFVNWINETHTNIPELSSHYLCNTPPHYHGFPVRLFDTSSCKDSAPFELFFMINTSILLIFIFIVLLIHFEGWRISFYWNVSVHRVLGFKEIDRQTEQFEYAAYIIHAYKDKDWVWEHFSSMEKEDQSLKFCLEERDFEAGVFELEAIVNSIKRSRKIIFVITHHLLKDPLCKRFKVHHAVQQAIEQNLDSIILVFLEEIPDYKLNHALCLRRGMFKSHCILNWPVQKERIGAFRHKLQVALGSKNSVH

## CCCC[C@@H](CCO)Nc1nc(N)ncc1OC
[1]
  AUC(0-t) at 24 h: 583 ng·h/mL
[2]
  Fa: 55%
[3]
  Activity: inactive
[4]
  Tmax: 1 h
[5]
  Tmax: 0.5 to 2 h
[6]
  microsomal CLint at 1 µM: 60 µL/min/mg
[7]
  Cmax: 65 ng/mL
[8]
  bioavailability: 1.5%
[9]
  Tmax: 1 h
[10]
  Cmax: 355 ng/mL
[11]
  Cmax: 1710 ng/g
[12]
  microsomal CLint at 1 µM: 5 µL/min/mg
[13]
  AUC(0-t) at 24 h: 11 ng·h/mL
[14]
  LED: 1.6 µM
[15]
  Tmax: 0.5 to 1 h
[16]
  AUC(0-t) at 24 h: 72 ng·h/mL
[17]
  Cmax: 7 ng/mL
HepG2
  EC20: > 86 µM
[18]
  CLH: 103 µL/min
[19]
  bioavailability: 3.9%
[20]
  Tmax: 0.5 h
[21]
  CLH: 18 µL/min
[22]
  Activity: inactive
[23]
  Drug uptake: Not Active
[24]
  LED: 0.5 µM
Human MDR1
  Papp A→B at 1 µM: 23 ×10⁻⁶ cm/s
[25]
  microsomal CLint at 1 µM: 8 µL/min/mg
[26]
  Kp: 14
[27]
  CLH: 20 µL/min
[28]
  CLH: 68 µL/min
[29]
  microsomal CLint at 1 µM: < 4 µL/min/mg
[30]
  Cmax: 34 ng/mL
[31]
  CLH: 99 µL/min
[32]
  Activity: inactive
